Test results: publication PMC2994747, “Molecular Characterization of c-Abl/c-Src Kinase Inhibitors Targeted against Murine Tumour Progenitor Cells that Express Stem Cell Markers” (PLoS ONE, 2010)
pKi: −log10 of the molar value.

Tests used:
c-Abl = molecular target: T1, c-Abl (Homo sapiens, UniProt P00519); experiment: Abl filter-binding kinase assay (Abtide, [γ-32P]ATP); assay type: biochemical; conditions: isolated Abl; calculated from ID50, ATP-competitive; E0 0.005, S0 0.012 µM
T1 construct: His tag; purchased Upstate (Lake Placid, NY, USA)
Method: Baculovirus-produced recombinant purified his-tagged active against human Src and Abl were purchased from Upstate (Lake Placid, NY, USA).
Src activity was measured in a filter-binding assay using the Src Assay Kit (Upstate, Lake Placid, NY, USA), according to the manufacturer's protocol, using the specific Src peptide substrate [[…]] in the presence of 0.125 pmol of Src and 0.160 pmol of [γ-^32P]ATP. Abl activity was measured in a filter-binding assay using an Abl specific peptide substrate (Abtide, Upstate). Reaction conditions were (in a final volume of 10 µl): 25 mM Tris-HCl pH 7.5, 1 mM DTT, 0.012 µM [γ-^32P]ATP, 0.022 µM c-Abl. Reactions were incubated 10 min at 30°C.The samples (9 µl) were spotted on paper cellulose filters which were washed according to the manufacturer's protocol. Filter-bound radioactivity was measured by liquid scintillation with a Microbeta-Trilux apparatus (PerkinElmer, Waltham, MA, USA).
The ID50 were converted to Ki according to a competitive mechanism with respect to the substrate ATP. […] Since (i) the ATP concentration was limiting, i.e., [ATP], Km(ATP), and (ii) the enzyme concentration was not negligible with respect to the ATP concentration, the classical Cheng-Prusoff relationship was not applicable. Consequently, Ki values were calculated according to [drawing 3] (2) where S0 is the concentration of the competing substrate (ATP) and E0 is the concentration of the enzyme. Each experiment was done in triplicate and mean values were used for the interpolation. Curve fitting was performed with the program GraphPad Prism.

A2C12 = experiment: Whole genome expression analysis (Affymetrix microarray); assay type: cell-based, mouse; conditions: IC50 concentration, 96 h
Method: (§1) The cells were harvested and RNA was isolated using RNeasy Mini Kit (Qiagen, Hilden, Germany) according to the instructions of the manufacturer. The isolated RNA (250 ng) was processed further using standard protocols as described recently with the exception of the 3′ IVT Express Kit (Affymetrix, High Wycombe, UK) that was utilized according to instructions. Quality control of cRNA was done with the Agilent 2100 Bioanalyzer (Agilent Tech according to manufacturer's protocols. Following fragmentation, cRNA of each sample was hybridized to Affymetrix GeneChip® Mouse Genome 430 2.0 or Human Genome U133 Plus 2.0 and scanned with an Affymetrix 3000 7G scanner.
(§2) The resultant data was normalized by Probe Logarithmic Intensity Error Estimation (PLIER) algorithm. Statistical analysis was carried out with the ArrayTrack software (National Center for Toxicological Research/FDA, Jefferson, AR, USA) using SAM algorithm.

A549 = experiment: as above; assay type: cell-based, human; conditions: IC50 concentration, 96 h
Method: as §1, §2

CaCo2 = experiment: as above; assay type: cell-based, human; conditions: IC50 concentration, 96 h
Method: as §1, §2

HepG2 = experiment: as above; assay type: cell-based, human; conditions: IC50 concentration, 96 h
Method: as §1, §2

T1 sequence (P00519 whole entry): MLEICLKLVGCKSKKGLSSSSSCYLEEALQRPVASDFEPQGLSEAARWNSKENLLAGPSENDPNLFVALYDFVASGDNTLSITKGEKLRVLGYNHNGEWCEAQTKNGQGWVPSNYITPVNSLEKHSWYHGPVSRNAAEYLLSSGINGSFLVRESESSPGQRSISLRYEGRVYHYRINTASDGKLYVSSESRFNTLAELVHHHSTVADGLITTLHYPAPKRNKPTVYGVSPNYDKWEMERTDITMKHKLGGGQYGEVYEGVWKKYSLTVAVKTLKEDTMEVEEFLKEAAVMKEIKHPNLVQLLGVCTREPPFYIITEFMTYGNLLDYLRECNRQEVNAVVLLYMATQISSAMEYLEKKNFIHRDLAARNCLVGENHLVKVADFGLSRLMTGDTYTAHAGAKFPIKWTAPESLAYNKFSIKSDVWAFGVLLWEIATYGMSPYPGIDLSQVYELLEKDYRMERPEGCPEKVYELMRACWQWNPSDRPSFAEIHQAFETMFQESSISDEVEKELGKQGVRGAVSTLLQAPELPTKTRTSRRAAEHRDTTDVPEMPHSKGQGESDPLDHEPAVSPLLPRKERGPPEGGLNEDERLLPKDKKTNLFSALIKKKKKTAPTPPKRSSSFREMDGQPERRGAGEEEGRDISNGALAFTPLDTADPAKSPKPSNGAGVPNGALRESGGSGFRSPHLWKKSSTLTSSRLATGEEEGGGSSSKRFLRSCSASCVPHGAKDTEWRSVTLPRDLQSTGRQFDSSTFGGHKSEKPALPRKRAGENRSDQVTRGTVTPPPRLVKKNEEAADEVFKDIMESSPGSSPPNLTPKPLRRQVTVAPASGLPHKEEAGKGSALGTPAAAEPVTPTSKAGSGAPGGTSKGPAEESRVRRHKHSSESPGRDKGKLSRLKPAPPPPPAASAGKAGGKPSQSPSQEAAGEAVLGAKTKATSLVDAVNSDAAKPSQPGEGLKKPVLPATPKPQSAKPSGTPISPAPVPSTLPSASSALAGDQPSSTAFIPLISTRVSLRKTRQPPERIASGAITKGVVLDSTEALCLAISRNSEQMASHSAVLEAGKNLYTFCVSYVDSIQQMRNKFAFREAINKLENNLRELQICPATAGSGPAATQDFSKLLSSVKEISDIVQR

For `Clc1cccc(Nc2nc(SC3CCCC3)nc3c2cnn3CC(Cl)c2ccccc2)c1` (stereo not shown) [Si135], the pKi (c-Abl) was 6.92, the “Significantly differentially regulated genes, downregulated (number)” value (A2C12; SAM FDR<0.01, FC>2) was 33 and the “Significantly differentially regulated genes, upregulated (number)” value (A2C12; SAM FDR<0.01, FC>2) was 118. The Actg2 gene expression (A2C12; vs control) was -4.51 log2 of fold change, the Ctgf gene expression (A2C12; vs control) was 1.05 log2 of fold change and the Dusp3 gene expression (A2C12; vs control) was 1.06 log2 of fold change. For the same molecule, the Gadd45a gene expression (A2C12; vs control) was 1.81 log2 of fold change, the Il6 gene expression (A2C12; vs control) was -4.69 log2 of fold change and the Mmp13 gene expression (A2C12; vs control) was 2.95 log2 of fold change. For the same molecule, the Mtm1 gene expression (A2C12; vs control) was 1.00 log2 of fold change, the Ptn gene expression (A2C12; vs control) was -5.35 log2 of fold change and the Ptprg gene expression (A2C12; vs control) was 1.05 log2 of fold change. The “Significantly differentially regulated genes, downregulated (number)” value (A549; SAM FDR<0.01, FC>2) was 17, the “Significantly differentially regulated genes, upregulated (number)” value (A549; SAM FDR<0.01, FC>2) was 61 and the Cdcp1 gene expression (A549; vs control) was 1.23 log2 of fold change. The Ceacam6 gene expression (A549; vs control) was 1.63 log2 of fold change, the Il8 gene expression (A549; vs control) was 1.20 log2 of fold change and the Lamb3 gene expression (A549; vs control) was 1.08 log2 of fold change. The Ptgs2 gene expression (A549; vs control) was 1.05 log2 of fold change, the Vcan gene expression (A549; vs control) was -4.42 log2 of fold change and the “Significantly differentially regulated genes, downregulated (number)” value (CaCo2; SAM FDR<0.01, FC>2) was 55. For the same molecule, the “Significantly differentially regulated genes, upregulated (number)” value (CaCo2; SAM FDR<0.01, FC>2) was 193, the Birc5 gene expression (CaCo2; vs control) was -4.36 log2 of fold change and the Cav1 gene expression (CaCo2; vs control) was 1.30 log2 of fold change. For the same molecule, the Cdkn1a gene expression (CaCo2; vs control) was 1.00 log2 of fold change, the Ceacam1 gene expression (CaCo2; vs control) was 1.47 log2 of fold change and the Ceacam6 gene expression (CaCo2; vs control) was 1.25 log2 of fold change. For the same molecule, the Cxcl2 gene expression (CaCo2; vs control) was 1.16 log2 of fold change, the Dusp1 gene expression (CaCo2; vs control) was 1.05 log2 of fold change and the Flnc gene expression (CaCo2; vs control) was 1.43 log2 of fold change. The Itga2 gene expression (CaCo2; vs control) was 1.02 log2 of fold change, the Jun gene expression (CaCo2; vs control) was 1.51 log2 of fold change and the Lamc2 gene expression (CaCo2; vs control) was 1.27 log2 of fold change. For the same molecule, the Mtss1 gene expression (CaCo2; vs control) was -4.64 log2 of fold change, the Ptn gene expression (CaCo2; vs control) was -4.50 log2 of fold change and the Tgfb1i1 gene expression (CaCo2; vs control) was 1.67 log2 of fold change. The “Thbs (thrombospondin 1) gene expression” value (CaCo2; vs control) was -4.36 log2 of fold change, the Tnc gene expression (CaCo2; vs control) was -6.40 log2 of fold change and the Tuba1a gene expression (CaCo2; vs control) was 2.27 log2 of fold change. The “Significantly differentially regulated genes, downregulated (number)” value (HepG2; SAM FDR<0.01, FC>2) was 0, the “Significantly differentially regulated genes, upregulated (number)” value (HepG2; SAM FDR<0.01, FC>2) was 87 and the Dusp1 gene expression (HepG2; vs control) was 1.56 log2 of fold change. The Hnrnpr gene expression (HepG2; vs control) was 1.08 log2 of fold change, the Jun gene expression (HepG2; vs control) was 1.34 log2 of fold change and the Pik3ca gene expression (HepG2; vs control) was 2.01 log2 of fold change. For the same molecule, the “Ptk2 (FAK) gene expression” value (HepG2; vs control) was 1.20 log2 of fold change.
